Assay results reported in the supplement of paper PMC13380429.

Legend:
Conditions in all cases: 72 h
Caco-2 [1] = experiment: cell viability relative to DMSO; higher = less toxic
Calu-3 [2] = experiment: as above
HepG2 [3] = experiment: as above
U2OS [4] = experiment: as above
Vero E6 [5] = experiment: as above
Caco-2 [6] = experiment: relative viability EC50 (midpoint between 100% and the lowest measured viability); higher = less toxic
Calu-3 [7] = experiment: as above
HepG2 [8] = experiment: as above
U2OS [9] = experiment: as above
Vero E6 [10] = experiment: as above
Caco-2 [11] = experiment: drug sensitivity score (DSS) for viability; higher = more toxic; extreme values may be limits of the assay
Calu-3 [12] = experiment: as above
HepG2 [13] = experiment: as above
U2OS [14] = experiment: as above
Vero E6 [15] = experiment: as above

Row | Compound | cell viability (Caco-2 [1]; 1 nM) [%] | cell viability (Caco-2 [1]; 10 nM) [%] | cell viability (Caco-2 [1]; 100 nM) [%] | cell viability (Caco-2 [1]; 1000 nM) [%] | cell viability (Caco-2 [1]; 10000 nM) [%] | cell viability (Calu-3 [2]; 1 nM) [%] | cell viability (Calu-3 [2]; 10 nM) [%] | cell viability (Calu-3 [2]; 100 nM) [%] | cell viability (Calu-3 [2]; 1000 nM) [%] | cell viability (Calu-3 [2]; 10000 nM) [%] | cell viability (HepG2 [3]; 1 nM) [%] | cell viability (HepG2 [3]; 10 nM) [%] | cell viability (HepG2 [3]; 100 nM) [%] | cell viability (HepG2 [3]; 1000 nM) [%] | cell viability (HepG2 [3]; 10000 nM) [%] | cell viability (U2OS [4]; 1 nM) [%] | cell viability (U2OS [4]; 10 nM) [%] | cell viability (U2OS [4]; 100 nM) [%] | cell viability (U2OS [4]; 1000 nM) [%] | cell viability (U2OS [4]; 10000 nM) [%] | cell viability (Vero E6 [5]; 1 nM) [%] | cell viability (Vero E6 [5]; 10 nM) [%] | cell viability (Vero E6 [5]; 100 nM) [%] | cell viability (Vero E6 [5]; 1000 nM) [%] | cell viability (Vero E6 [5]; 10000 nM) [%] | relative viability EC50 (Caco-2 [6]) [µM] | relative viability EC50 (Calu-3 [7]) [µM] | relative viability EC50 (HepG2 [8]) [µM] | relative viability EC50 (U2OS [9]) [µM] | relative viability EC50 (Vero E6 [10]) [µM] | drug sensitivity score (Caco-2 [11]) | drug sensitivity score (Calu-3 [12]) | drug sensitivity score (HepG2 [13]) | drug sensitivity score (U2OS [14]) | drug sensitivity score (Vero E6 [15])
1 | O=C(O)c1cc(C(=O)O)c(C(=O)N(Cc2cccc(Oc3ccccc3)c2)[C@H]2CCCc3ccccc32)cc1C(=O)O | 106 | 99.1 | 90.4 | 99.8 | 103 | 102 | 98.8 | 103 | 104 | 106 | 98.5 | 106 | 102 | 107 | 98.4 | 102 | 94.4 | 99.4 | 91.3 | 109 | 98.2 | 102 | 96.9 | 98.9 | 102 | > 10 | > 10 | > 10 | > 10 | > 10 | 0 | 0 | 0 | 0 | 0
2 | OC[C@H]1O[C@@H](OCCc2ccc(O)cc2)[C@H](O)[C@@H](O)[C@@H]1O [salidroside] | 103 | 92.2 | 92.3 | 106 | 104 | 96 | 106 | 102 | 87.2 | 113 | 91.4 | 97 | 109 | 87 | 104 | 102 | 93.9 | 96 | 103 | 101 | 95.5 | 94.8 | 93.2 | 99.8 | 107 | > 10 | > 10 | > 10 | > 10 | > 10 | 0 | 0 | 0 | 0 | 0
3 | Cc1cc(=O)n(-c2ccccc2)[nH]1 [N-demethylantipyrine] | 99.3 | 97.2 | 102 | 84.8 | 99.8 | 102 | 107 | 98.5 | 97 | 106 | 94.1 | 106 | 95.3 | 107 | 93.8 | 101 | 99.7 | 98.7 | 102 | 98.5 | 104 | 101 | 94.2 | 95.2 | 102 | > 10 | > 10 | > 10 | > 10 | > 10 | 0 | 0 | 0 | 0 | 0
4 | O=C(CCCl)NCCc1ccccc1 [fenaclon] | 81.8 | 126 | 93.7 | 84.5 | 109 | 105 | 99.1 | 97.4 | 96 | 88.3 | 104 | 111 | 99.3 | 119 | 96.2 | 101 | 96.9 | 100 | 92.6 | 103 | 104 | 105 | 100 | 103 | 91.3 | > 10 | > 10 | > 10 | > 10 | > 10 | 0 | 0 | 0 | 0 | 0
5 | COc1ccc(-n2nc(C(F)(F)F)cc2-c2ccc(Cl)cc2)cc1 [SC-560] | 101 | 99.1 | 95.7 | 92.2 | 86.6 | 104 | 104 | 109 | 95.3 | 108 | 106 | 104 | 104 | 91 | 87 | 102 | 99.9 | 104 | 98.8 | 100 | 98.2 | 105 | 92.6 | 100 | 44.3 | > 10 | > 10 | > 10 | > 10 | 3.18 | 0.2 | 0 | 0.6 | 0 | 3
6 | CC/C(=C(/CC)c1ccc(O)cc1)c1ccc(O)cc1 [diethylstilbestrol] | 97.7 | 87.3 | 107 | 106 | 81.5 | 106 | 96.7 | 114 | 103 | 109 | 111 | 98.8 | 103 | 98.8 | 106 | 98.6 | 94 | 99.5 | 94.3 | 96.8 | 95.1 | 99.8 | 91.2 | 98.3 | 107 | > 10 | > 10 | > 10 | > 10 | > 10 | 0.3 | 0 | 0 | 0 | 0
7 | O=C(O)C(Cc1ccccc1[N+](=O)[O-])=NNc1nc(-c2ccc(Cl)c(Cl)c2)cs1 [4EGI-1] | 87.1 | 103 | 98.1 | 112 | 84.8 | 98.1 | 100 | 97.7 | 104 | 96.7 | 101 | 104 | 102 | 91.6 | 45.5 | 94.5 | 96.7 | 93.8 | 93.7 | 93.1 | 97.9 | 95.3 | 96.7 | 92 | 100 | > 10 | > 10 | 1.96 | > 10 | > 10 | 0.1 | 0 | 4.3 | 0 | 0
8 | CCc1oc2ccccc2c1C(=O)c1cc(Br)c(O)c(Br)c1 [benzbromarone] | 101 | 93.5 | 105 | 83.1 | 89.9 | 104 | 90.5 | 105 | 99.4 | 107 | 109 | 101 | 96.4 | 102 | 102 | 99.9 | 94.8 | 102 | 102 | 105 | 103 | 108 | 104 | 105 | 99.8 | > 10 | > 10 | > 10 | > 10 | > 10 | 1.7 | 0 | 0 | 0 | 0
9 | COc1cc2c(cc1O)C(CCc1ccc(Cl)cc1)N(C)CC2 (stereo not given) [Ro-04-5595] | 102 | 97.2 | 94.4 | 100 | 102 | 93 | 94.6 | 102 | 96.6 | 92.1 | 103 | 101 | 102 | 99 | 80.1 | 100 | 96.2 | 95.8 | 95.1 | 97.9 | 106 | 108 | 101 | 102 | 90.1 | > 10 | > 10 | > 10 | > 10 | > 10 | 0 | 0 | 0.7 | 0 | 0
10 | CCC(=O)NCC[C@@H]1CCc2ccc3c(c21)CCO3 [ramelteon] | 102 | 96.8 | 97.1 | 101 | 95.6 | 106 | 90.7 | 100 | 86.3 | 98.4 | 105 | 112 | 105 | 108 | 89 | 99.5 | 98.4 | 101 | 96.1 | 98.7 | 112 | 110 | 106 | 100 | 99.5 | > 10 | > 10 | > 10 | > 10 | > 10 | 0 | 0 | 0 | 0 | 0
11 | CC(=O)[C@H]1CC[C@H]2[C@@H]3C[C@H](C)C4=CC(=O)CC[C@]4(C)[C@H]3[C@@H](O)C[C@]12C [medrysone] | 90.4 | 97.5 | 98.2 | 101 | 102 | 91.5 | 98.5 | 101 | 91.3 | 93.4 | 102 | 98.4 | 108 | 101 | 112 | 97.6 | 97.4 | 99.8 | 101 | 99.6 | 98 | 95 | 97.9 | 95.6 | 100 | > 10 | > 10 | > 10 | > 10 | > 10 | 0 | 0 | 0 | 0 | 0
12 | C[N+]1(C)CCc2cc3c(cc2[C@H]1[C@@H]1OC(=O)c2c1ccc1c2OCO1)OCO3 [bicuculline-methochloride-(-)] | 101 | 118 | 98 | 81.9 | 97.3 | 89 | 104 | 85 | 88 | 110 | 101 | 98.7 | 93.9 | 92.8 | 108 | 95.1 | 99.9 | 99.2 | 98.9 | 100 | 98.6 | 97 | 99.2 | 103 | 100 | > 10 | > 10 | > 10 | > 10 | > 10 | 2.5 | 0 | 0 | 0 | 0
13 | COc1cc2c(cc1OC)CC(=O)N(CCCN(C)C[C@H]1Cc3cc(OC)c(OC)cc31)CC2 [ivabradine] | 98.3 | 85.6 | 102 | 100 | 99.8 | 111 | 85.1 | 98.4 | 101 | 105 | 109 | 113 | 98.2 | 102 | 89.3 | 106 | 102 | 99.6 | 99.1 | 101 | 101 | 99.7 | 100 | 107 | 99.4 | > 10 | > 10 | > 10 | > 10 | > 10 | 0 | 0 | 0 | 0 | 0
14 | Cc1ccc(-c2cc(C(F)(F)F)nn2-c2ccc(S(N)(=O)=O)cc2)cc1 [celecoxib] | 99.1 | 79.8 | 105 | 90.6 | 103 | 99.4 | 100 | 98.2 | 101 | 114 | 115 | 98.4 | 99.3 | 100 | 95.1 | 92.4 | 99.6 | 92.4 | 97.7 | 98.4 | 101 | 85.4 | 102 | 94.1 | 104 | > 10 | > 10 | > 10 | > 10 | > 10 | 0 | 0 | 0 | 0 | 0
